ChEMBL document CHEMBL1201862, “PubChem BioAssay data set” (2004)
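These data come from cells grown in 96-well plates and exposed to compound for 48 hours at five concentrations. GI50 is the concentration that inhibits growth by half.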 Calls of active or inactive are those of the source. No stated cut-off is given here; in the data, active = GI50 up to about 1.1 µM and inactive = higher.

Tests used:
Assay in all cases: growth of human tumour cells (NCI), 48 h
[1] = test system: SK-MEL-5
[2] = test system: UO-31
[3] = test system: A549
[4] = test system: OVCAR-3
[5] = test system: SK-MEL-28
[6] = test system: 786-0
[7] = test system: HT-29
[8] = test system: K562
[9] = test system: TK-10
[10] = test system: SK-MEL-2
[11] = test system: M14
[12] = test system: SNB-75
[13] = test system: CCRF-CEM
[14] = test system: ACHN
[15] = test system: HOP-62
[16] = test system: CAKI-1
[17] = test system: Hs-578T
[18] = test system: HCT-116
[19] = test system: LOX IMVI

Compound	GI50 [1]	GI50 [2]	GI50 [3]	GI50 [4]	GI50 [5]	GI50 [6]	GI50 [7]	GI50 [8]	GI50 [9]	GI50 [10]	GI50 [11]	GI50 [12]	GI50 [13]	GI50 [14]	GI50 [15]	GI50 [16]	GI50 [17]	GI50 [18]	GI50 [19]
CC1Oc2cc3c(-c4c(O)cc(O)c5c(O)c6c(cc45)OC(C)C(C)C6=O)c(O)cc(O)c3c(O)c2C(=O)C1C (configuration not stated)	0.158 µM (active)	0.213 µM (active)	0.0252 µM (active)	0.255 µM (active)	0.698 µM (active)	0.102 µM (active)	0.0289 µM (active)	0.0526 µM (active)	0.27 µM (active)	0.101 µM (active)	0.226 µM (active)	0.0675 µM (active)	0.0279 µM (active)	0.183 µM (active)	0.282 µM (active)	0.231 µM (active)	0.0439 µM (active)	0.0378 µM (active)	–
CC1CCc2sc3nc(S)n(-c4ccccc4)c(=O)c3c2C1 (configuration not stated)	44.1 µM (inactive)	15.1 µM (inactive)	81.8 µM (inactive)	39.6 µM (inactive)	93.1 µM (inactive)	62.7 µM (inactive)	39.6 µM (inactive)	> 100 µM (inactive)	57.8 µM (inactive)	27.7 µM (inactive)	> 100 µM (inactive)	29.3 µM (inactive)	–	62.5 µM (inactive)	36.3 µM (inactive)	> 100 µM (inactive)	61.1 µM (inactive)	> 100 µM (inactive)	47.2 µM (inactive)
N=C(N)NS(=O)(=O)c1ccc(Nc2c3ccccc3nc3c(C(=O)NNCCO)cccc23)cc1	0.123 µM (active)	0.416 µM (active)	0.473 µM (active)	0.134 µM (active)	0.252 µM (active)	0.436 µM (active)	0.352 µM (active)	0.055 µM (active)	> 1 µM (active)	0.156 µM (active)	0.21 µM (active)	–	0.0541 µM (active)	0.565 µM (active)	0.193 µM (active)	0.198 µM (active)	0.249 µM (active)	0.156 µM (active)	0.165 µM (active)
CC(C)OC1OC(CO)C(O)CC1n1cc(F)c(=O)[nH]c1=O (configuration not stated)	> 100 µM (inactive)	> 100 µM (inactive)	> 100 µM (inactive)	> 100 µM (inactive)	> 100 µM (inactive)	> 100 µM (inactive)	> 100 µM (inactive)	34.4 µM (inactive)	> 100 µM (inactive)	> 100 µM (inactive)	> 100 µM (inactive)	> 100 µM (inactive)	–	> 100 µM (inactive)	–	24.6 µM (inactive)	86.3 µM (inactive)	> 100 µM (inactive)	94 µM (inactive)
CNC(=S)N/N=C(C)\C(=N/NC(=S)NC)c1ccccc1	42.3 µM (inactive)	30.7 µM (inactive)	29.2 µM (inactive)	86.9 µM (inactive)	–	50 µM (inactive)	–	–	> 100 µM (inactive)	–	61.4 µM (inactive)	69.8 µM (inactive)	–	19.9 µM (inactive)	> 100 µM (inactive)	96.6 µM (inactive)	17.8 µM (inactive)	31.6 µM (inactive)	42.1 µM (inactive)
CCOC(=O)c1nnsc1NC(=O)Nc1ccc(Cl)cc1	> 100 µM (inactive)	31.1 µM (inactive)	43 µM (inactive)	43.2 µM (inactive)	> 100 µM (inactive)	21.1 µM (inactive)	54.3 µM (inactive)	> 100 µM (inactive)	> 100 µM (inactive)	> 100 µM (inactive)	77.1 µM (inactive)	21.1 µM (inactive)	> 100 µM (inactive)	> 100 µM (inactive)	68.9 µM (inactive)	–	30.1 µM (inactive)	25.4 µM (inactive)	–
C[C@]12CCC(O)CC1=CC[C@@H]1[C@@H]2CC[C@]2(C)C(=O)[C@H](n3ccnc3)C[C@@H]12 (some centres not stated)	16.2 µM (inactive)	75.9 µM (inactive)	91.4 µM (inactive)	> 100 µM (inactive)	79.4 µM (inactive)	> 100 µM (inactive)	28.2 µM (inactive)	38 µM (inactive)	> 100 µM (inactive)	27 µM (inactive)	77.6 µM (inactive)	> 100 µM (inactive)	22.1 µM (inactive)	> 100 µM (inactive)	–	> 100 µM (inactive)	> 100 µM (inactive)	54.5 µM (inactive)	44.5 µM (inactive)
CCOc1ccccc1/N=N/C1C(=O)N(C(=O)CC(=O)Nc2ccccc2Cl)N=C1C (configuration not stated)	> 100 µM (inactive)	47.4 µM (inactive)	> 100 µM (inactive)	55.3 µM (inactive)	> 100 µM (inactive)	> 100 µM (inactive)	> 100 µM (inactive)	–	81.8 µM (inactive)	> 100 µM (inactive)	> 100 µM (inactive)	42.2 µM (inactive)	68.7 µM (inactive)	> 100 µM (inactive)	27.9 µM (inactive)	> 100 µM (inactive)	22.4 µM (inactive)	87.3 µM (inactive)	43.7 µM (inactive)
CCOC(=O)/C(=C\NC(=S)Nc1ccc(Cl)c(Cl)c1)C(=O)c1ccccc1	27.1 µM (inactive)	1.52 µM (inactive)	43.1 µM (inactive)	–	53.2 µM (inactive)	58.6 µM (inactive)	33.1 µM (inactive)	10 µM (inactive)	–	21.7 µM (inactive)	27.3 µM (inactive)	6.79 µM (inactive)	31.1 µM (inactive)	18.2 µM (inactive)	40.6 µM (inactive)	12.9 µM (inactive)	2.11 µM (inactive)	46.5 µM (inactive)	69.7 µM (inactive)
COCc1nc2c(OC)c(-c3nc4ccc(N5CCN(C)CC5)nc4[nH]3)cc(OC)c2[nH]1	18.6 µM (inactive)	56.2 µM (inactive)	46 µM (inactive)	15.9 µM (inactive)	28 µM (inactive)	40.7 µM (inactive)	31 µM (inactive)	25.4 µM (inactive)	67.3 µM (inactive)	–	21.3 µM (inactive)	18 µM (inactive)	21.2 µM (inactive)	62.2 µM (inactive)	40.1 µM (inactive)	> 100 µM (inactive)	> 100 µM (inactive)	30.1 µM (inactive)	30.8 µM (inactive)
CCOC(=O)c1cc(-c2cc(OC)c(OC)c([N+](=O)[O-])c2)c([N+](=O)[O-])n1C	–	> 10 µM (inactive)	> 10 µM (inactive)	7.67 µM (inactive)	–	> 10 µM (inactive)	3.18 µM (inactive)	2.83 µM (inactive)	> 10 µM (inactive)	> 10 µM (inactive)	8.57 µM (inactive)	> 10 µM (inactive)	3.24 µM (inactive)	9.04 µM (inactive)	–	–	4.21 µM (inactive)	5.33 µM (inactive)	–
COc1ccc(/N=N/c2ccc3oc(=O)c(C(=O)Nc4ccccc4C)cc3c2)cc1	> 10 µM (inactive)	> 10 µM (inactive)	–	> 10 µM (inactive)	> 10 µM (inactive)	> 10 µM (inactive)	> 10 µM (inactive)	–	> 10 µM (inactive)	> 10 µM (inactive)	> 10 µM (inactive)	4.69 µM (inactive)	–	8.3 µM (inactive)	> 10 µM (inactive)	> 10 µM (inactive)	> 10 µM (inactive)	–	> 10 µM (inactive)
